Assay results reported in US5874461A, “Use of Nebivolol as an anti-atherogenic” (priority 1995, dated 1999).
Read-outs that look alike come from different tables or passages of the source.

Experiments:
[1] = test system: primary embryonic hippocampal cultures; assay: In vitro neuroprotection against nitric oxide and superoxide radicals (inhibition of LDH release); assay type: cell-based, rats; details: for inhibition at 1 µM / inhibition at 0.1 µM: Rattus norvegicus, read-out: % neuroprotection, mean ± SD; for inhibition at 1 µM: 10^-6 M; for inhibition at 0.1 µM: 10^-7 M; for neuroprotection against DDTC or SNP: one or the other treatment paradigm
Experimental: Primary embryonic hippocampal cultures were prepared essentially as described previously (Pauwels et al., Van Aschouw, H. P., Peeters, L., Moeremans, M., Leysen, J. E. (1992) Chronic treatment with sabeluzole protects cultured rat brain neurons from the neurotoxic effects of excitatory amino acids. Synapse, 12:271-280). Hippocampal formations of rats at embryonic day 17 were dissected and dissociated in 0.05% trypsin, 0.1 mg/ml DNase I in DMEM (Dulbecco Modified Eagle Medium). Heat-inactivated horse serum (HS) was added to a concentration of 4%, and the cells were centrifuged, washed with DMEM, and resuspended in DMEM/Ham's F12 (3:1) containing 10% HS. The cells were plated at a density of 4×10^5 cells/cm^2 in poly L-lysine (0.001%) precoated multiwell-24 plates. On day 1 in culture, the medium was changed to chemically defined CDM-R12 medium (DMEM-HEPES/Ham's F12 (3:1) containing 0.26% bovine serum albumin, 30 nM sodium selenite, 3 nM 3,3',5 triiodo-L-thyronine, 0.35 μM retinol, 0.3 μM retinol acetate, 2.3 μM DL-a-tocopherol, 2.1 μM DL-a-tocopherol acetate, 3.6 μM linolenic acid, 3.6 μM linoleic acid, 0.125% human transferrin, […], 57.7 nM corticosterone, 49 U/I insulin, 0.4 μM biotin, 10 μM L-carnitine, 83 μM D(+)-galactose, 3.3 μM glutathione, 10 μM ethanolamine, 0.1 mM putrescine; Romijn, H. J., van Huizen, F., Wolters, P. S. (1984) Towards an improved serum-free, chemically defined medium for long-term culturing of cerebral cortex tissue. Neurosci. Behav. Rev., 8:301-334). Acute and prolonged pretreatment of the, cultures was essentially as described previously (Pauwels et al., 1992). Drugs were dissolved, and diluted in 10% or 1% hydroxypropyl-β-cyclodextrin such that the final concentrations of the solvent in the acute and chronic exposures were 0.1% and 0.01% respectively. Compound A as used in the following examples is [(RRSR)+(RRRS)+(SSSR) +(SSRS)]-α-[[[2-(chroman-2-yl)-2-hydroxy-ethyl]amino]methyl]-6-hydroxy-2-chromanmethanol ethanedioate (1:1).
For acute treatment, drug, or solvent was added to the cultures on day 7. After 20 min the medium was replaced with 200 μl chemically defined DMEM medium (the same composition of CDM-R12 medium but without Ham's F12) (control), or chemically defined DMEM medium containing the oxidative stress trigger. Oxidative stress triggers used were 1 mM sodium nitroprusside (SNP, a nitric oxide radical generating compound), or 7.5-10 mM diethyldithiocarbamate (DDTC, a superoxide dismutase inhibitor) and the test compound.
For prolonged pretreatment experiments, drug (concentration range 0.1 nM-10 μM) was added to the serum-free medium on days 1 and 4 of the culture. On day 7, the cultures were washed once with DMEM, and incubated with 0.2 ml chemically defined DMEM medium for 2 h at 37° C. The cells were washed and the medium was replaced by 0.2 ml chemically defined DMEM medium (control), or chemically defined DMEM medium containing the oxidative stress trigger (se above).
For both the acute experiment and the prolonged pretreatment experiment, extracellular and intracellular LDH (lactate dehydrogenase) activities were measured spectrophotometrically at 340 nm with an EPOS Analyzer 5060, according to the method of Bergmeyer (Bergmeyer, H. U. (1974) Biochemical reagents. In: Methods of Enzymatic Analysis. H. U. Bergmeyer, eds. Academic Press, New York, 2nd Ed., pp. […]). Extracellular LDH activity in the culture medium and cytoplasmic LDH activity measured after lysis of the cells in 1 ml H2 O, were used to calculate total LDH activity and % released LDH. % Neuroprotection refers to % inhibition of LDH release, where oxidative stress trigger-induced LDH release is defined as 0% protection, and basal (control) level of LDH release is defined as 100% protection.
Neuronal primary hippocampal cultures were grown in CDM-R12 medium for 7 days. Test compounds were either administered on days 1 and 4 of culture (prolonged pretreatment) or on day 7 of culture (acute treament). […]

C6 glioma cells = assay: Fluorescence measurement of intracellular peroxides in C6 glioma cells after glutamate; assay type: cell-based; details: for glutamate-mediated increase in peroxidation: 10 mM glutamate; for Intracellular peroxides (mean ± SD, n): glutamate 10 mM, without or with compound 1 μM
From the text: Competitive inhibition by glutamate of cystine uptake in certain cells leads to glutathione depletion and oxidative stress. This oxidative stress model has been described for glial C6 glioma cells (Kato et al., 1992. A mechanism for glutamate toxicity in the C6 glioma cells involving inhibition of cystine uptake leading to glutathione depletion. Neurosci. 48:903-914) and for the neuronal cell line N18RE105 (Murphy et al., 1989. Glutamate toxicity in a neuronal cell line involves inhibition of cystine transport leading to oxidative stress. Neuron 2:1547-1558).
Cell culture: The C6 glioma cell line (American Type Culture Collection, CCL 107) was cultivated in DMEM supplemented with 2 or 4 mM glutamine, 1 mM pyruvate and 5 or 10% heat-inactivated foetal calf serum. Cultures were maintained at 37° C. in an air/5~10% CO2, water saturated atmosphere.
Glutathione depletion and evaluation of drugs as antioxidants: Experiments were carried out with cultures plated at 30,000~50,000 cells/cm^2 in 24-well culture plates (for toxicity and lipid peroxide measurements) or at 136,000 cells/cm^2 in 96-well culture plates (for GSH determination). After 8-24 hr, the cultures were switched to culture medium in the absence or presence of the cystine uptake inhibitor glutamate at a final concentration of 10 mM. In order to test drugs for inhibition of oxidative stress, the drug was added together with glutamate (final concentration of solvent was 0.01% hydroxypropyl-β-cylodextrin, 0.1% DMSO). Intracellular glutathione levels were measured after 6~8 hr, lipid peroxides were measured after 14~20 hr, and toxicity and protection were analysed after 48 hr using an LDH assay according to the method of Bergmeyer and Bernt (UV-assay with pyruvate and NADH. In: Methods of Enzymatic Analysis. 1974. H. U. Bergmeyer, ed. Acad. Press, New York, 2nd Ed., pp 574-579).
Fluorescence measurement of intracellular peroxides: Formation of intracellular peroxides was detected using 6-carboxy-2',7'-dichlorodihydrofluorescin diacetate, di(acetoxymethyl ester) (C-DCDHF, Molecular Probes). C-DCDHF was dissolved in DMSO at a concentration of 10 mM and stored at -70° C. under nitrogen. After exposure of the culture to the glutathione depleting agents, the cells were loaded with 10 μM C-DCDHF for one hour at 37° C. Medium was aspirated off, PBS was added to the cells, and plates were read in a Cytofluor II microplate reader (PerSeptive Biosystems). Excitation and emission wavelength were selected with a 485/530 nm filter pair. The results were expressed in relative fluorescence units/μg protein.

[2] = test system: spontaneous hypertensive rats; details: acute; cited from earlier work
[3] = DDTC trigger, prolonged pretreatment
[4] = SNP trigger, prolonged pretreatment

Row | SMILES | inhibition at 1 µM ([1]; DDTC trigger, acute treatment) | inhibition at 0.1 µM ([1]; DDTC trigger, acute treatment) | inhibition at 1 µM [1, 3] | inhibition at 0.1 µM [1, 3] | inhibition at 1 µM ([1]; SNP trigger, acute treatment) | inhibition at 0.1 µM ([1]; SNP trigger, acute treatment) | inhibition at 1 µM [1, 4] | inhibition at 0.1 µM [1, 4] | neuroprotection against DDTC or SNP [1] | glutamate-mediated increase in peroxidation (C6 glioma cells) | Intracellular peroxides (mean ± SD, n) (C6 glioma cells) | blood pressure [2]
1 | O[C@H](CNC[C@@H](O)[C@H]1CCc2cc(F)ccc2O1)[C@@H]1CCc2cc(F)ccc2O1 (relative stereo) [nebivolol, (RSSS) and (SRRR) α,α'-iminobis(methylene)bis[6-fluoro-2-chroman-methanol]] | 29 ± 16% | 32 ± 28% | 37 ± 23% | < 25% | < 25% | < 25% | 36 ± 18% | 26 ± 13% | can confer neuroprotection | inhibited the glutamate-mediated increase in peroxidation | 155 ± 13 Relative fluorescence units/μg | acutely lowers blood pressure
2 | Oc1ccc2c(c1)CCC(C(O)CNCC(O)C1CCc3ccccc3O1)O2 (stereo not drawn) [Compound A, [(RRSR)+(RRRS)+(SSSR) +(SSRS)]-α-[[[2-(chroman-2-yl)-2-hydroxy-ethyl]amino]methyl]-6-hydroxy-2-chromanmethanol ethanedioate (1:1)] | 30 ± 28% | 35 ± 32% | < 25% | < 25% | < 25% | < 25% | 38% | 39 ± 13% | can confer neuroprotection | inhibited the glutamate-mediated increase in peroxidation | 137 ± 8 Relative fluorescence units/μg | 
